Data from patent US20230355597A1, “COMPOUNDS, COMPOSITIONS, AND METHODS FOR THE TREATMENT AND PREVENTION OF AVIAN PATHOGENIC E. COLI (APEC)” (OHIO STATE INNOVATION FOUNDATION, priority 2018, published 2023).

Assays:
[1] = tested on: AI-2 activity of APEC O78; assay: AI-2 bioluminescence indicator assay (V. harveyi BB170); conditions: APEC O78, 100 µM
Rif^r APEC O78 [2] = assay: In vivo screening of quorum sensing inhibitors in APEC infected broiler chickens
Rif^r APEC O78 [3] = assay: Wax moth (Galleria mellonella) larva infection model (AI-2 inhibitors)
[4] = tested on: AI-2 activity of APEC O35; assay: AI-2 bioluminescence indicator assay (V. harveyi BB170); conditions: APEC O35, 100 µM
Caco-2 cells = assay: LDH assay of AI-2 inhibitors; conditions: Caco-2, 100 µM, 24 h
AI-2 activity of APEC O1 = assay: AI-2 bioluminescence indicator assay (V. harveyi BB170); conditions: APEC O1, 100 µM
AI-2 activity of APEC O2 = assay: as above; conditions: APEC O2, 100 µM
[5] = tested on: AI-2 activity of APEC O18; assay: as above; conditions: APEC O18, 100 µM
[6] = tested on: QS and virulence associated genes of APEC O78; assay: qRT-PCR of QS-regulated and virulence factors genes; assay type: cell-based, avian pathogenic Escherichia coli (APEC); conditions: 100 µM, 10 h
Experimental: Quantitative real-time reverse transcription PCR (qRT-PCR). […] APEC O78 was grown in the presence of 100 µM of each compound in a 96-well plate at 37° C. for 10 h. APEC O78 culture treated with 1 µL of 100% DMSO was used as […]. Total RNA was extracted from duplicate wells for each compound (200 µL) using a miRNeasy Mini Kit (Qiagen). RNA quality and quantity was determined by nanodrop 2000 C spectrophotometer (Thermo scientific). Traces of DNA was removed using Genomic DNA removal mix (Qiagen). Approximately, 5 µg of purified RNA was used to synthesize cDNA using the Qiagen RT^2 First Strand Kit (Qiagen). The qRT-PCR was performed using SensiMix™ SYBER® Hi-Rox qPCR Master Mix (Bioline) according to manufacturer instructions in a realplex^2 mastercycler (Eppendorf) with 55° C. annealing temperature. Gene-specific primers were designed using PrimerQuest Tool and obtained from integrated DNA technologies (IDT). The data were normalized to the house-keeping gene, glyceraldehyde-3-phosphate dehydrogenase (GAPDH). The relative fold change was calculated using the ΔΔCt method. Three independent experiments were conducted.

[7] = tested on: AI-2 activity of APEC O15; assay: AI-2 bioluminescence indicator assay (V. harveyi BB170); conditions: APEC O15, 100 µM
[8] = tested on: AI-2 activity of APEC O115; assay: as above; conditions: APEC O115, 100 µM
AI-2 activity of APEC O8 = assay: as above; conditions: APEC O8, 100 µM
APEC O2 in HD-11 cells = assay: Intracellular survival assay (AI-2 inhibitors); conditions: O2, HD-11, 100 µM, 6 h
APEC O2 in THP-1 cells = assay: Intracellular survival assay (AI-2 inhibitors); conditions: O2, THP-1, 100 µM, 6 h
APEC O78 in HD-11 cells = assay: Intracellular survival assay (AI-2 inhibitors); assay type: cell-based, avian pathogenic Escherichia coli (APEC); conditions: O78, HD-11, 100 µM, 6 h
Description: Intracellular survival assay.

[9] = tested on: AI-2 activity of APEC O109; assay: AI-2 bioluminescence indicator assay (V. harveyi BB170); conditions: APEC O109, 100 µM

Row | Compound | Inhibition % of AI-2 activity [1] | Inhibition % of AI-2 activity [4] | toxicity (LDH) (Caco-2 cells) | Inhibition % of AI-2 activity (AI-2 activity of APEC O1) | Inhibition % of AI-2 activity (AI-2 activity of APEC O2) | Inhibition % of AI-2 activity [5] | Inhibition % of AI-2 activity [7] | Inhibition % of AI-2 activity [8] | Inhibition % of AI-2 activity (AI-2 activity of APEC O8) | expression of cheW [6] | expression of csrA [6] | Inhibition % of AI-2 activity [9] | also measured
1 | CCc1ccccc1Nc1nc(-c2c(C)nc3ccccn23)cs1 [C8, N-{2-ethyphenyl)-4-(2-methylimidazo[1,2-a]pyridin-3-yl)-1.3-thiazol-2-amine] | 98% | 57% | 2% | 41% | 94% | 54% | 25% | 44% | 18% |  |  |  | reduction in chicken mortality (Rif^r APEC O78 [2]; DMSO control mortality normalized to 100%): 50%; average lesion score reduction (Rif^r APEC O78 [2]; liver, heart, lung and airsac, vs DMSO): 1.0-2.0; reduction of bacterial load in internal organs (Rif^r APEC O78 [2]; liver, lung, heart, and kidney, vs DMSO control, 'up to'): 2.2-3.1 log CFU/g; Mortality rate (%) (Rif^r APEC O78 [2]; oral gavage once a day, day 4 to day 8, DMSO control 66.7%): 33.3%; Reduction in APEC lesions severity, Air-sacs (%) (Rif^r APEC O78 [2]; vs DMSO treated control): 66.7%; Reduction in APEC lesions severity, Heart (%) (Rif^r APEC O78 [2]; vs DMSO treated control): 75%; Reduction in APEC lesions severity, Liver (%) (Rif^r APEC O78 [2]; vs DMSO treated control): 75%; Reduction in APEC lesions severity, Lung (%) (Rif^r APEC O78 [2]; vs DMSO treated control): 83.3%; larval death (Rif^r APEC O78 [3]; 48 h post treatment): no larval death; clearance of APEC in live larvae (Rif^r APEC O78 [3]; 72 h): 100%; expression of fliP [6]: down-regulated
2 | Fc1ccc(CN2CCCN(Cc3nc(-c4ccc(C(F)(F)F)cc4)no3)CC2)cc1 [C9, 1-(4-flurobenzyl)-4-((3-[4-(trifluoromethyl)phenyl]-1,2,4-oxadiazol-5-yl]methyl)-1,4-diazapane] | 79% | 36% |  | 19% | 51% | 14% | 0% | 44% | 20% | down-regulated | down-regulated | 66% | clearance of intracellular APEC (APEC O2 in HD-11 cells): 100%; reduction of intracellular survival (APEC O2 in HD-11 cells; vs DMSO): 3.3 logs; clearance of intracellular APEC (APEC O2 in THP-1 cells): 100%; reduction of intracellular survival (APEC O2 in THP-1 cells; vs DMSO): 4 logs; expression of murD [6]: down-regulated; clearance of intracellular APEC (APEC O78 in HD-11 cells): 100%; reduction of intracellular survival (APEC O78 in HD-11 cells; vs DMSO): 4 logs
3 | COC(=S)NN=Cc1cc(C)ccc1O [C4, methyl N′-{2-hydroxy-5-methylbenzylidene)hydrazonethiocarbonate] | 75% | 60% | 12% | 63% | 76% | 54% | 46% | 58% | 0% | down-regulated | down-regulated | 67% | expression of iucD [6]: down-regulated; expression of pfs [6]: up-regulated
